The subject of test [1] is Rattus norvegicus. The test is described as follows: Prokinetic activity expressed as stimulation of intragastric pressure in rat at the lowest active dose in mg/kg on subcutaneous administration. It counts as functional.
The subject of test [2] is Mus musculus. Briefly: Dopamine antagonist activity expressed as inhibition of apomorphine-induced climbing in mice, subcutaneous administration. The format is functional.
Test [3] can be described thus: Selectivity at Dopamine receptors compared to 5-HT receptors. It counts as functional.
For test [4], the system named is Rattus norvegicus. The test is described as follows: Antagonist activity against 5-HT3 receptor was assessed from ability to inhibit the 5-HT -induced bradycardia when dose given intravenously; inactive up to 1 mg/kg. More on the design: dose 1 mg/kg. It counts as functional, organism-based.
The target of test [5] is D(2) dopamine receptor (Rattus norvegicus, UniProt P61169). The test is described as follows: Compound was tested against Dopamine receptor D2 by displacement of [125I]iodosulpiride radioligand from rat D2 clones. (Displacement assays read how much labelled ligand stays bound in the presence of the test substance.)
Sequence of D(2) dopamine receptor (P61169 whole entry): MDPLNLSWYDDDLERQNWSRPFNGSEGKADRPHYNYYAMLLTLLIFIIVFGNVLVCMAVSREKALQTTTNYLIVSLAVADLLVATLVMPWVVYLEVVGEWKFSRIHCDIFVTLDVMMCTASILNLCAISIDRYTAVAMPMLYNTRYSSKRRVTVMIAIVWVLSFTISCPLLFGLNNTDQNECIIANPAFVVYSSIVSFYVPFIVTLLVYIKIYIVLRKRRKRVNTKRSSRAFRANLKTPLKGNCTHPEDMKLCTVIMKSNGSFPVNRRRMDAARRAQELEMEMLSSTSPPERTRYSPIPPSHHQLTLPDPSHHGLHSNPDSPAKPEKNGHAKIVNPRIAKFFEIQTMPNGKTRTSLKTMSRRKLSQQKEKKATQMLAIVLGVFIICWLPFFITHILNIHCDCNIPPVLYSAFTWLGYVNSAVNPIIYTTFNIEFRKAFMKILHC
Where [6] appears, read: Mus musculus, sc, read-out: ED50.

The source made the active and inactive calls. No cut-off for these calls is given here.

In turn, `COc1cc(N)c(Cl)cc1C(=O)NCC1CCCN2CCCCC12` (single isomer, unassigned) showed an Activity in test [1] above 25 mg/kg.

Regarding `COc1cc(N)c(Cl)cc1C(=O)NC1CCCN2CCCCC2C1` (single isomer, unassigned; form 1) [listing 1 of 2 here], the median effective dose (ED50) in test [2] (setting [6]) was above 50 mg/kg. This molecule came in with an Activity in test [1] of 1 mg/kg.

Regarding `COc1cc(N)c(Cl)cc1C(=O)NC1CCCN2CCCC12` (stereo in doubt; 10 (Eq)), in test [2], the median effective dose (ED50) was 3.5 mg/kg. This molecule also yielded an Activity in test [1] above 5 mg/kg.

On to `COc1cc(N)c(Cl)cc1C(=O)NC1CC(C)N2CCCC2C1` (stereo in doubt; 28) [listing 1 of 2 here], for which the Ratio in test [3] came to 50.

In the case of `COc1cc(N)c(Cl)cc1C(=O)NC1CCN2CCCC2C1` (stereo in doubt; 8 (Eq)) [listing 1 of 2 here], the ED50 in test [2] (setting [6]) is 6 mg/kg. Further, the Activity in test [1] was 5 mg/kg.

`COc1cc(N)c(Cl)cc1C(=O)NC1CCN2CCCCC12` (single isomer, unassigned) [listing 1 of 2 here] came in with an ED50 in test [2] of 0.2 mg/kg. Also, in test [1], the Activity worked out at 0.5 mg/kg.

As for `COc1cc(N)c(Cl)cc1C(=O)NC1CC(C)N2CCCC2C1` (stereo in doubt; 29) [listing 1 of 2 here], the ED50 in test [2] amounted to 34 mg/kg.

As for `COc1cc(N)c(Cl)cc1C(=O)NC1CCN2C(C)CCCC2C1` (stereo in doubt; 19) [BRL-20627], in test [1], the Activity is above 5 mg/kg.

Turning to `COc1cc(N)c(Cl)cc1C(=O)NC1CCN2CCCC2C1` (stereo in doubt; 8 (Eq)) [listing 2 of 2 here], the Ratio in test [3] was determined as 1.2.

Take `COc1cc(N)c(Cl)cc1C(=O)NCC1CCC2CCCCN21` (single isomer, unassigned) [listing 1 of 2 here]: the ED50 in test [2] (setting [6]) amounted to 15 mg/kg. The same molecule came in with an Activity in test [1] of 0.2 mg/kg.

With `COc1cc(N)c(Cl)cc1C(=O)NC1CC2CCCCN2C1` (single isomer, unassigned; form 1), the ED50 in test [2] is above 10 mg/kg. This molecule registered an Activity in test [1] above 10 mg/kg.

`COc1cc(N)c(Cl)cc1C(=O)NC1CC(C)N2CCCC2C1` (stereo in doubt; 29) [listing 2 of 2 here]: the Ratio in test [3] is 34.

Turning to `COc1cc(N)c(Cl)cc1C(=O)NC1CCCN2CCCCC2C1` (single isomer, unassigned; form 2) [listing 1 of 2 here], the Ratio in test [3] was 38.

With `COc1cc(N)c(Cl)cc1C(=O)NC1CC(C)N2CCCC2C1` (stereo in doubt; 28) [listing 2 of 2 here], the ED50 in test [2] is 50 mg/kg. The Activity in test [1] was determined as 1 mg/kg.

In test [2], `COc1cc(N)c(Cl)cc1C(=O)NC1CCN2CCCC2C1` (stereo in doubt; 9 (Ax)) [listing 1 of 2 here] came in with a median effective dose (ED50) of 12 mg/kg. This molecule yielded an Activity in test [1] of 0.2 mg/kg.

For `COc1cc(N)c(Cl)cc1C(=O)NC1CCN2CCCC2(C)C1` (centres undefined), in test [2] (setting [6]), the ED50 is above 30 mg/kg. In test [1], this molecule registered an Activity above 1 mg/kg.

With `COc1cc(N)c(Cl)cc1C(=O)NC1CCN2C(C)CCCC2C1` (stereo in doubt; 2), the Ratio in test [3] is 50.

Take `COc1cc(N)c(Cl)cc1C(=O)NC1CCN2C(C)CCCC2C1` (stereo in doubt) [BRL-20627]: the ED50 in test [2] (setting [6]) was 25 mg/kg. The same molecule showed an Activity in test [1] of 0.5 mg/kg.

In test [2], `COc1cc(N)c(Cl)cc1C(=O)NC1CC2CCCCN2C1` (single isomer, unassigned; form 2) yielded an ED50 of 0.1 mg/kg.

For the molecule `COc1cc(N)c(Cl)cc1C(=O)NC1CCCN2CCCCC2C1` (single isomer, unassigned; form 1) [listing 2 of 2 here], the Ratio in test [3] is above 50.

For `COc1cc(N)c(Cl)cc1C(=O)NC1CCN2C(C)CCCC2C1` (stereo in doubt), the Ratio in test [3] stood at 50.

As to `COc1cc(N)c(Cl)cc1C(=O)NC1CC(C)N2CCCC2C1` (stereo in doubt; 30), the median effective dose (ED50) in test [2] is above 50 mg/kg. The Activity in test [1] was above 1 mg/kg.

As for `COc1cc(N)c(Cl)cc1C(=O)NC1CCN2CCCCC12` (stereo in doubt) [listing 1 of 2 here], the median effective dose (ED50) in test [2] stood at 1.8 mg/kg. In test [1], this molecule gave an Activity of 1 mg/kg.

Molecule `COc1cc(N)c(Cl)cc1C(=O)NCC1CC2CCCCN2C1` (centres undefined) displayed an Activity in test [1] above 25 mg/kg. The outcome in test [4] was inactive.

In test [2], `COc1cc(N)c(Cl)cc1C(=O)NC1CCCN2CCCC12` (stereo in doubt; 11 (Ax)) [listing 1 of 2 here] registered an ED50 of 0.1 mg/kg. In test [1], this molecule came in with an Activity of 0.5 mg/kg.

As for `COc1cc(N)c(Cl)cc1C(=O)NC1CCN2CCCC12` (centres undefined), the ED50 in test [2] (setting [6]) came out at 7.5 mg/kg. In test [1], this molecule yielded an Activity of 0.5 mg/kg. In addition, the Ratio in test [3] was determined as 15.

`COc1cc(N)c(Cl)cc1C(=O)NCC1CCC2CCCCN21` (stereo in doubt) registered a median effective dose (ED50) in test [2] of 20 mg/kg. In test [1], the Activity is above 1 mg/kg.

For the molecule `COc1cc(N)c(Cl)cc1C(=O)NC1CC(C)N2CCCCC2C1` (stereo in doubt; 25), the ED50 in test [2] (setting [6]) was above 30 mg/kg. The molecule also had an Activity in test [1] above 1 mg/kg.

With `COc1cc(N)c(Cl)cc1C(=O)NC1CCN2C(CCCC2c2ccccc2)C1` (stereo in doubt; 21), the ED50 in test [2] (setting [6]) is 5 mg/kg.

With `COc1cc(N)c(Cl)cc1C(=O)NC1CCN2C(C)CCCC2C1` (stereo in doubt; 2) [BRL-20627], in test [2], the ED50 came out at 25 mg/kg.

As for `COc1cc(N)c(Cl)cc1C(=O)NC1CCN2CCCCC12` (single isomer, unassigned) [listing 2 of 2 here], in test [3], the Ratio amounted to 0.4.

In the case of `COc1cc(N)c(Cl)cc1C(=O)NC1CCN2C(C)CCC2C1` (centres undefined), the ED50 in test [2] (setting [6]) was determined as 15 mg/kg. This molecule also returned an Activity in test [1] of 0.5 mg/kg. Besides, the Ratio in test [3] amounted to 30.

Take `CCN(CC)CCNC(=O)c1cc(Cl)c(N)cc1OC` [METOCLOPRAMIDE]: the ED50 in test [2] (setting [6]) was found to be 0.8 mg/kg. In test [1], this molecule had an Activity of 1 mg/kg. For the same molecule, the Ratio in test [3] came out at 0.8.

For `COc1cc(N)c(Cl)cc1C(=O)NCC1CCC2CCCCN21` (single isomer, unassigned) [listing 2 of 2 here], the Ratio in test [3] worked out at 75.

Consider `COc1cc(N)c(Cl)cc1C(=O)NC1CCN2CC(C)CCC2C1` (stereo in doubt; 17), for which the ED50 in test [2] (setting [6]) is above 10 mg/kg. Moreover, in test [1], the Activity is above 5 mg/kg.

`COc1cc(N)c(Cl)cc1C(=O)NC1CCN2CC(C)CCC2C1` (stereo in doubt; 18) returned an Activity in test [1] of 5 mg/kg.

With `COc1cc(N)c(Cl)cc1C(=O)NC1CCC2CCCCN2CC1` (centres undefined), the ED50 in test [2] (setting [6]) was above 50 mg/kg. The molecule further gave an Activity in test [1] above 25 mg/kg.

In test [5], `COc1cc(N)c(Cl)cc1C(=O)NC[C@H]1CCC2CCCCN2C1` (some centres undefined) returned an IC50 of 3.9 µM. The ED50 in test [2] (setting [6]) was above 25 mg/kg. Besides, the Activity in test [1] worked out at 0.2 mg/kg. Further, the outcome in test [4] was inactive. Moreover, the Ratio in test [3] is above 125.

As for `COc1cc(N)c(Cl)cc1C(=O)NC1CC(C)N2CCCC2C1` (stereo in doubt; 27) [listing 1 of 2 here], in test [3], the Ratio was 10.

`COc1cc(N)c(Cl)cc1C(=O)NC1CC(C)N2CCCCC2C1` (stereo in doubt; 23) registered an Activity in test [1] above 5 mg/kg.

In test [2], `COc1cc(N)c(Cl)cc1C(=O)NC1CCN2C(CCCC2c2ccccc2)C1` (stereo in doubt; 22) yielded an ED50 of 5 mg/kg. The molecule further came in with an Activity in test [1] above 5 mg/kg.

As for `COc1cc(N)c(Cl)cc1C(=O)NCC1CCC2CCCCN2C1` (centres undefined), the Activity in test [1] came out at 5 mg/kg.

`COc1cc(N)c(Cl)cc1C(=O)NC1CC(C)N2CCCC2C1` (stereo in doubt; 27) [listing 2 of 2 here] registered an ED50 in test [2] of 10 mg/kg.

On to `COc1cc(N)c(Cl)cc1C(=O)NC1CCN2CCCCC12` (stereo in doubt) [listing 2 of 2 here], for which the Ratio in test [3] amounted to 1.8.

On to `CCCC1CCCC2CC(NC(=O)c3cc(Cl)c(N)cc3OC)CCN12` (centres undefined), for which, in test [2] (setting [6]), the ED50 is above 10 mg/kg. The same molecule showed an Activity in test [1] of 1 mg/kg. In test [3], the Ratio was above 10.

On to `COc1cc(N)c(Cl)cc1C(=O)NC1CCCN2CCCC12` (stereo in doubt; 11 (Ax)) [listing 2 of 2 here], for which, in test [3], the Ratio stood at 0.2.

Take `COc1cc(N)c(Cl)cc1C(=O)NC1CCN2CCCC2C1` (stereo in doubt; 9 (Ax)) [listing 2 of 2 here]: in test [3], the Ratio is 60.

Take `COc1cc(N)c(Cl)cc1C(=O)NC1CCCN2CCCCC2C1` (single isomer, unassigned; form 2) [listing 2 of 2 here]: the 50% effective dose (ED50) in test [2] is 38 mg/kg.

The ED50 is the dose that gives a 50% effect, or the effect in half of the subjects. For orientation: IC50 means the midpoint of a concentration-inhibition curve.

The record behind these values is ChEMBL document CHEMBL1126459, “Substituted Benzamides with Conformationally Restricted Side Chains. 3. Azabicyclo[x.y.0] derivatives as gastric prokinetic agents” (Bioorg Med Chem Lett, 1992).
